Laboratory results from ChEMBL document CHEMBL1140104, “Chlorogenic acid derivatives with alkyl chains of different lengths and orientations: potent alpha-glucosidase inhibitors” (J Med Chem, 2008).
Structures can show the parent of a compound that is named as a salt.

How the values were obtained:
[1] = Inhibition of Bacillus stearothermophilus alpha-glucosidase; set-up: species or system Geobacillus stearothermophilus
[2] = Inhibition of Saccharomyces cerevisiae alpha-glucosidase
[3] = Stability in artificial intestinal juice at 10 mM after 12 hrs; type: physicochemical; conditions: simulated gi fluid, 10000 µM
[4] = Stability in artificial gastric juice at 10 mM after 48 hrs; type: physicochemical; conditions: simulated gi fluid, 10000 µM

Row | Compound | IC50 [1] [µM] | IC50 [2] [µM] | Stability [3] | Stability [4]
1 | CCC1(CC)OC(=O)[C@@]2(C[C@@H](O)[C@@H](O)[C@H](OC(=O)/C=C/c3ccc(O)c(O)c3)C2)O1 | 128 | 71.1 | – | –
2 | CC1(C)OC2Cc3c(O)cc(O)cc3O[C@@H]2c2cc(O)c(O)cc21 (some centres undefined) | 29.6 | 18.5 | – | –
3 | CCCC1(CCC)O[C@H]2[C@H](OC(=O)/C=C/c3ccc(O)c(O)c3)C[C@]3(C[C@H]2O1)OC(CCC)(CCC)OC3=O | 5.5 | 3.3 | – | –
4 | CCCCCCCCC1(CCCCCCCC)OC(=O)[C@@]2(C[C@@H](O)[C@@H](O)[C@H](OC(=O)/C=C/c3ccc(O)c(O)c3)C2)O1 | 5.1 | 3 | – | –
5 | CCCCCCCC1(CCCCCCC)OC(=O)[C@@]2(C[C@@H](O)[C@@H](O)[C@H](OC(=O)/C=C/c3ccc(O)c(O)c3)C2)O1 | 3.6 | 4.3 | – | –
6 | CCCC1(CCC)OC(=O)[C@@]2(C[C@@H](O)[C@@H](O)[C@H](OC(=O)/C=C/c3ccc(O)c(O)c3)C2)O1 | 62.2 | 19.4 | – | –
7 | CC1(C)OC(=O)[C@@]2(C[C@@H](O)[C@@H](O)[C@H](OC(=O)/C=C/c3ccc(O)c(O)c3)C2)O1 | 2540 | 114 | – | –
8 | CC1(C)O[C@H]2[C@H](OC(=O)/C=C/c3ccc(O)c(O)c3)C[C@]3(C[C@H]2O1)OC(C)(C)OC3=O | 154 | 391 | – | –
9 | CCCCCC1(CCCCC)OC(=O)[C@@]2(C[C@@H](O)[C@@H](O)[C@H](OC(=O)/C=C/c3ccc(O)c(O)c3)C2)O1 | 14.2 | 3.6 | – | –
10 | CCCCCCCC[C@@H]1OC(=O)[C@@]2(C[C@@H](O)[C@@H](O)[C@H](OC(=O)/C=C/c3ccc(O)c(O)c3)C2)O1 | 10.9 | 3.3 | – | –
11 | O=C(/C=C/c1ccc(O)c(O)c1)O[C@@H]1C[C@](O)(C(=O)O)C[C@@H](O)[C@H]1O [CHLOROGENIC ACID] | 2820 | > 2820 | – | –
12 | CCC1(CC)O[C@H]2[C@H](OC(=O)/C=C/c3ccc(O)c(O)c3)C[C@]3(C[C@H]2O1)OC(CC)(CC)OC3=O | 44.9 | 26.5 | – | –
13 | CCCCCCCC[C@H]1OC(=O)[C@@]2(C[C@@H](O)[C@@H](O)[C@H](OC(=O)/C=C/c3ccc(O)c(O)c3)C2)O1 | 12.5 | 3.6 | – | –
14 | CCCCC1(CCCC)OC(=O)[C@@]2(C[C@@H](O)[C@@H](O)[C@H](OC(=O)/C=C/c3ccc(O)c(O)c3)C2)O1 | 14.4 | 3.4 | – | –
15 | CCCCCCC1(CCCCCC)OC(=O)[C@@]2(C[C@@H](O)[C@@H](O)[C@H](OC(=O)/C=C/c3ccc(O)c(O)c3)C2)O1 | 3.9 | 3.4 | – | –

Stronger by IC50 [1], values ahead:

Row | IC50 [1] [µM] | IC50 [2] [µM] | Stability [3] | Stability [4] | Compound
16 | 0.8 | 0.5 | – | – | CCCCCCC1(CCCCCC)O[C@H]2[C@H](OC(=O)/C=C/c3ccc(O)c(O)c3)C[C@]3(C[C@H]2O1)OC(CCCCCC)(CCCCCC)OC3=O
17 | 1.1 | 0.8 | – | – | CCCCCC1(CCCCC)O[C@H]2[C@H](OC(=O)/C=C/c3ccc(O)c(O)c3)C[C@]3(C[C@H]2O1)OC(CCCCC)(CCCCC)OC3=O
18 | 2.4 | 1.8 | – | – | OC[C@H]1NC[C@H](O)[C@@H](O)[C@@H]1O [DUVOGLUSTAT HYDROCHLORIDE]
19 | 0.8 | 0.3 | – | – | CCCCC1(CCCC)O[C@H]2[C@H](OC(=O)/C=C/c3ccc(O)c(O)c3)C[C@]3(C[C@H]2O1)OC(CCCC)(CCCC)OC3=O
20 | 0.9 | 0.5 | – | – | CCCCCCCCC1(CCCCCCCC)O[C@H]2[C@H](OC(=O)/C=C/c3ccc(O)c(O)c3)C[C@]3(C[C@H]2O1)OC(CCCCCCCC)(CCCCCCCC)OC3=O
21 | 0.7 | 0.3 | Stable | Stable | CCCCCCCC[C@@H]1O[C@H]2[C@H](OC(=O)/C=C/c3ccc(O)c(O)c3)C[C@]3(C[C@H]2O1)O[C@@H](CCCCCCCC)OC3=O
22 | 0.8 | 0.3 | – | – | CCCCCCCC[C@H]1O[C@H]2[C@H](OC(=O)/C=C/c3ccc(O)c(O)c3)C[C@]3(C[C@H]2O1)O[C@@H](CCCCCCCC)OC3=O
23 | 1.8 | 0.8 | – | – | CCCCCCCC[C@@H]1O[C@H]2[C@H](OC(=O)/C=C/c3ccc(O)c(O)c3)C[C@]3(C[C@H]2O1)O[C@H](CCCCCCCC)OC3=O
24 | 0.9 | 0.4 | – | – | CCCCCCCC1(CCCCCCC)O[C@H]2[C@H](OC(=O)/C=C/c3ccc(O)c(O)c3)C[C@]3(C[C@H]2O1)OC(CCCCCCC)(CCCCCCC)OC3=O
25 | 2 | 1 | – | – | CCCCCCCC[C@@H]1OC(=O)[C@]2(C[C@@H](OC(=O)/C=C/c3ccc(O)c(O)c3)[C@@H]3O[C@H](CCCCCCCC)O[C@@H]3C2)O1
26 | 0.1 | 0.1 | – | – | C[C@H]1O[C@H](O[C@H]2[C@H](O)[C@@H](O)[C@@H](O[C@H]3[C@H](O)[C@@H](O)C(O)O[C@@H]3CO)O[C@@H]2CO)[C@H](O)[C@@H](O)[C@@H]1N[C@H]1C=C(CO)[C@@H](O)[C@H](O)[C@H]1O (some centres undefined) [ACARBOSE]
